Source: patent US20250171431A1, “HETEROCYCLIC INHIBITORS OF IGF-1R FOR TREATMENT OF DISEASE” (HORIZON THERAPEUTICS IRELAND DAC, priority 2023, published 2025)

Tests used:
IGF-1R [1] = target: T1, IGF-1R (Homo sapiens (Human), UniProt P08069); test: Example B-2: IGF-1R Assay (PathHunter cell lines, EC80 agonist challenge); type: cell-based; settings: read-out: IC50 (Biological Activity against IGF-1R)
Procedure: PathHunter cell lines were expanded from freezer stocks according to standard procedures. Cells were seeded in a total volume of 20 μL into white walled, 384-well microplates and incubated for the appropriate time prior to testing.
Cells are pre-incubated with compound followed by EC80 agonist challenge as follows: • 1. Intermediate dilution of sample stocks was performed to generate 5× sample in assay buffer. • 2. 5 μL of 5× sample was added to cells and incubated at 37° C. for 60 minutes. Vehicle concentration was 1%. • 3. 5 μL of 6×EC80 agonist in assay buffer was added to the cells and incubated at room temperature for 3 hours.
Assay signal was generated through a single addition of 12.5 or 15 μL (50% v/v) of PathHunter Detection reagent cocktail for agonist and antagonist assays respectively, followed by a one hour incubation at room temperature. Microplates were read following signal generation with a PerkinElmer Envision™ instrument for chemilumine-scent signal detection.
Compound activity was analyzed using CBIS data analysis suite (ChemInnovation, CA). Percentage inhibition was calculated using the following formula: % Inhibition=100%×(1−(mean RLU of test sample−mean RLU of vehicle control)/(mean RLU of EC80 control−mean RLU of vehicle control)). The activity for representative examples of the invention is shown in the following table, wherein A: IC50≤500 nM; B: 500 nM<IC50≤2 μM; C: […]≤10 μM; D: IC50>[…].
Target sequence in this assay (P08069 31-1367, species assumed): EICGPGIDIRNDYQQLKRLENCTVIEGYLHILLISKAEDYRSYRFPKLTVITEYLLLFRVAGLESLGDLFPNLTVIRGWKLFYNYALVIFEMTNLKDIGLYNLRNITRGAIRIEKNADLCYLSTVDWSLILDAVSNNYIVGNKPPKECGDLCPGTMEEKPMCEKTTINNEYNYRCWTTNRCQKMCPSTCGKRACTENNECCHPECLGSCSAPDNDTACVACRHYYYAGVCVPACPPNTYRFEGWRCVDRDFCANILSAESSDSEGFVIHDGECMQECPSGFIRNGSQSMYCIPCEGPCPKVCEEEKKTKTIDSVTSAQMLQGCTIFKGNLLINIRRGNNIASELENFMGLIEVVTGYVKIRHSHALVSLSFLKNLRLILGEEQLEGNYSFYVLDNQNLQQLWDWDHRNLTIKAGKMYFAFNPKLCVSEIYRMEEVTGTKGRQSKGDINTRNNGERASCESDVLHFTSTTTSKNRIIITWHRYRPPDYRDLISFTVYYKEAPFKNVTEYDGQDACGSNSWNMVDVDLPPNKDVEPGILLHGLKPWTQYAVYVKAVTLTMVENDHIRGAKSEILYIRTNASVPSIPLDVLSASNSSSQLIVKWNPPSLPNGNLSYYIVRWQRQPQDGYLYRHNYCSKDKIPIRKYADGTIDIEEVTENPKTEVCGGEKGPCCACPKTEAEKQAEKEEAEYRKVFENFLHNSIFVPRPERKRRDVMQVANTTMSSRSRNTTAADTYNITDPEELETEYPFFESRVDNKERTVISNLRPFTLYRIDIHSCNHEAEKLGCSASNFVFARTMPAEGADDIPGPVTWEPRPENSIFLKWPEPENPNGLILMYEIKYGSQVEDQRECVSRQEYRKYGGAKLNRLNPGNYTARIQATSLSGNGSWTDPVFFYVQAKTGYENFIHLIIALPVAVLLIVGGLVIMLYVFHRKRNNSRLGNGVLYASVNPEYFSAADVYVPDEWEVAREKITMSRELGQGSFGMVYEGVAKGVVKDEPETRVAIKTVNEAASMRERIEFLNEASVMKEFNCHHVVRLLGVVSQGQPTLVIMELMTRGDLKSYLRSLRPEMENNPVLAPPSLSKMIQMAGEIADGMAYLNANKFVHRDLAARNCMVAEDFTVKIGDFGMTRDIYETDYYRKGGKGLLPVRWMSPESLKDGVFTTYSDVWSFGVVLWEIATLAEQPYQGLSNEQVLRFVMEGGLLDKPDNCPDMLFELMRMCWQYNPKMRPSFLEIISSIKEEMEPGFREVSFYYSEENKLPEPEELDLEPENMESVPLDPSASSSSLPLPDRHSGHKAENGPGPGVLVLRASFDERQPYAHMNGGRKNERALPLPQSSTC

IGF-1R [2] = target: T1, IGF-1R; test: Example B-1: IGF-1R Assay (PC3 cells, IGF1 stimulation, AlphaLISA); type: cell-based; settings: 200 ng/mL IGF1 stimulation, read-out: Biological Activity against IGF-1R IC50
Method in brief: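 Readout is AlphaLISA signal from lysed PC3 cells, expressed as % inhibition versus vehicle and EC80 controls and banded by IC50. Before lysis, the cells were starved of serum for 2 h, exposed to 3× serially diluted compound for 2 h, and stimulated for 30 min with 200 ng/mL IGF1 (final).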
Target sequence in this assay (P08069 31-1367): as the sequence (P08069 31-1367, species assumed) above

SMILES	IC50 (IGF-1R [2])	IC50 (IGF-1R [1])
COc1cc(Nc2nccc(Nc3cnc4ccccc4c3)n2)ccc1N1CCC(N2CCOCC2)CC1 [Compound 3, 2-[3-methoxy-4-(4-morpholino-1-piperidyl)phenylamino]-4-(3-quinolylamino)pyrimidine]	≤ 500 nM	≤ 500 nM
COc1cc(Nc2nccc(Nc3cc4ccccc4nc3C(N)=O)n2)ccc1O[C@H]1C[C@@H](N(C)C)C1 [Compound 297, 3-(2-{3-methoxy-4-[(1s,3s)-3-(dimethylamino)cyclobutoxy]phenylamino}-4-pyrimidinylamino)-2-quinolinecarboxamide]		500 to 2000 nM
COc1cc(N2CCN(C)CC2)ccc1Nc1nccc(Nc2cnc3c(Cl)cccc3c2)n1 [Compound 467, 4-(8-chloro-3-quinolylamino)-2-[2-methoxy-4-(4-methyl-1-piperazinyl)phenylamino] pyrimidine]	≤ 500 nM	
COc1cc(Nc2nccc(Nc3cnc4cc(F)c(F)cc4c3)n2)cnc1N1CCN(C)CC1 [Compound 468, 4-(6,7-difluoro-3-quinolylamino)-2-[5-methoxy-6-(4-methyl-1-piperazinyl)-3-pyridylamino]pyrimidine]	≤ 500 nM	
COc1cc(Nc2nccc(Nc3cnc4cc(F)c(F)cc4c3)n2)cnc1N1CCOCC1 [Compound 469, 4-(6,7-difluoro-3-quinolylamino)-2-(5-methoxy-6-morpholino-3-pyridylamino)pyrimidine]	≤ 500 nM	
COc1cc(Nc2nccc(Nc3cnc4cc(F)c(F)cc4c3)n2)cnc1N1CCNC(=O)C1 [Compound 471, 4-{5-[4-(6,7-difluoro-3-quinolylamino)-2-pyrimidinylamino]-3-methoxy-2-pyridyl}-2-piperazinone]	> 10000 nM	
COc1nc(N2CCN(C)CC2)ccc1Nc1nccc(Nc2cnc3cc(F)c(F)cc3c2)n1 [Compound 472, 4-(6,7-difluoro-3-quinolylamino)-2-[2-methoxy-6-(4-methyl-1-piperazinyl)-3-pyridylamino]pyrimidine]	≤ 500 nM	
COc1cc(N2CCN(C)CC2)ncc1Nc1nccc(Nc2cnc3cc(F)c(F)cc3c2)n1 [Compound 473, 4-(6,7-difluoro-3-quinolylamino)-2-[4-methoxy-6-(4-methy1-1-piperazinyl)-3-pyridylamino]pyrimidine]	≤ 500 nM	
COc1cc(Nc2nccc(Nc3cnc4cc(F)c(F)cc4c3)n2)cnc1N1CCN(CC(F)(F)F)CC1 [Compound 474, 4-(6,7-difluoro-3-quinolylamino)-2-{5-methoxy-6-[4-(2,2,2-trifluoroethyl)-1-piperazinyl]-3-pyridylamino}pyrimidine]	500 to 2000 nM	
COc1cc(Nc2nccc(Nc3cnc4cc(F)c(F)cc4c3)n2)cnc1N1CCN(C)C(C(F)(F)F)C1 (stereo not shown) [Compound 475, 4-(6,7-difluoro-3-quinolylamino)-2-{5-methoxy-6-[4-methyl-3-(trifluoromethyl)-1-piperazinyl]-3-pyridylamino}pyrimidine]	500 to 2000 nM	
COc1cc(Nc2nccc(Nc3cnc4ccc(Cl)cc4c3)n2)cnc1N1CCC(C)(O)CC1 [Compound 476, 1-{5-[4-(6-chloro-3-quinolylamino)-2-pyrimidinylamino]-3-methoxy-2-pyridyl}-4-methyl-4-piperidinol]	≤ 500 nM	
COc1cc(Nc2nccc(Nc3cnc4ccc(Cl)cc4c3)n2)cnc1N1CCN(C)CC1 [Compound 477, 4-(6-chloro-3-quinolylamino)-2-[5-methoxy-6-(4-methyl-1-piperazinyl)-3-pyridylamino]pyrimidine]	≤ 500 nM	
COc1cc(Nc2nccc(Nc3cnc4cc(F)c(F)cc4c3)n2)cnc1N1CCNCC1 [Compound 478, 4-(6,7-difluoro-3-quinolylamino)-2-[5-methoxy-6-(1-piperazinyl)-3-pyridylamino]pyrimidine]	≤ 500 nM	
COc1cc(Nc2nccc(Nc3cnc4ccc(Cl)cc4c3)n2)cnc1N1CCN(CC#N)CC1 [Compound 479, (4-{5-[4-(6-chloro-3-quinolylamino)-2-pyrimidinylamino]-3-methoxy-2-pyridyl}-1-piperazinyl)acetonitrile]	≤ 500 nM	
COc1cc(Nc2nccc(Nc3cnc4ccc(Cl)cc4c3)n2)cnc1N1CCN(C)C(C)(C)C1 [Compound 480, 4-(6-chloro-3-quinolylamino)-2-[6-(3,3-dimethyl-4-methyl-1-piperazinyl)-5-methoxy-3-pyridylamino] pyrimidine]	≤ 500 nM	
COc1cc(Nc2nccc(Nc3cnc4ccc(Cl)cc4c3)n2)cnc1N1CCN(C2COC2)CC1 [Compound 481, 4-(6-chloro-3-quinolylamino)-2-{5-methoxy-6-[4-(3-oxetanyl)-1-piperazinyl]-3-pyridylamino}pyrimidine]	≤ 500 nM	
COc1cc(Nc2nccc(Nc3cnc4cc(F)c(F)cc4c3)n2)cnc1N1CCNC(C(F)F)C1 (stereo not shown) [Compound 482, 2-{6-[3-(difluoromethyl)-1-piperazinyl]-5-methoxy-3-pyridylamino}-4-(6,7-difluoro-3-quinolylamino)pyrimidine]	≤ 500 nM	

More lines, main results first:

IC50 (IGF-1R [2])	SMILES	IC50 (IGF-1R [1])
≤ 500 nM	COc1cc(Nc2nccc(Nc3cnc4cc(F)c(F)cc4c3)n2)cnc1N1CCN(C)C(C)(C)C1 [Compound 484, 4-(6,7-difluoro-3-quinolylamino)-2-[6-(3,3-dimethyl-4-methyl-1-piperazinyl)-5-methoxy-3-pyridylamino]pyrimidine]	
≤ 500 nM	COc1nc(N2CCN(C)CC2)ccc1Nc1nccc(Nc2cnc3ccc(Cl)cc3c2)n1 [Compound 485, 4-(6-chloro-3-quinolylamino)-2-[2-methoxy-6-(4-methyl-1-piperazinyl)-3-pyridylamino]pyrimidine]	
≤ 500 nM	COc1cc(N2CCN(C)CC2)ncc1Nc1nccc(Nc2cnc3ccc(Cl)cc3c2)n1 [Compound 486, 4-(6-chloro-3-quinolylamino)-2-[4-methoxy-6-(4-methyl-1-piperazinyl)-3-pyridylamino]pyrimidine]	
≤ 500 nM	COc1nc(N2CCC(C)(O)CC2)ccc1Nc1nccc(Nc2cnc3cc(F)c(F)cc3c2)n1 [Compound 487, 1-{5-[4-(6,7-difluoro-3-quinolylamino)-2-pyrimidinylamino]-6-methoxy-2-pyridyl}-4-methyl-4-piperidinol]	
≤ 500 nM	COc1cc(N2CCC(C)(O)CC2)ncc1Nc1nccc(Nc2cnc3cc(F)c(F)cc3c2)n1 [Compound 488, 1-{5-[4-(6,7-difluoro-3-quinolylamino)-2-pyrimidinylamino]-4-methoxy-2-pyridyl}-4-methyl-4-piperidinol]	
≤ 500 nM	COc1nc(N2CCC(C)(O)CC2)ccc1Nc1nccc(Nc2cnc3ccc(Cl)cc3c2)n1 [Compound 489, 1-{5-[4-(6-chloro-3-quinolylamino)-2-pyrimidinylamino]-6-methoxy-2-pyridyl}-4-methyl-4-piperidinol]	
≤ 500 nM	COc1cc(N2CCC(C)(O)CC2)ncc1Nc1nccc(Nc2cnc3ccc(Cl)cc3c2)n1 [Compound 490, 1-{5-[4-(6-chloro-3-quinolylamino)-2-pyrimidinylamino]-4-methoxy-2-pyridyl}-4-methyl-4-piperidinol]	
≤ 500 nM	COc1cc(Nc2ncc(F)c(Nc3cc4ccccc4nc3C(N)=O)n2)cnc1N1CCC(C)(O)CC1 [Compound 491, 3-{5-fluoro-2-[6-(4-hydroxy-4-methyl-1-piperidyl)-5-methoxy-3-pyridylamino]-4-pyrimidinylamino}-2-quinolinecarboxamide]	
≤ 500 nM	COc1cc(N2CCC(C)(O)CC2)ncc1Nc1ncc(F)c(Nc2cc3ccccc3nc2C(N)=O)n1 [Compound 492, 3-{5-fluoro-2-[6-(4-hydroxy-4-methyl-1-piperidyl)-4-methoxy-3-pyridylamino]-4-pyrimidinylamino}-2-quinolinecarboxamide]	
≤ 500 nM	COc1cc(N2CCN(CC#N)CC2)ncc1Nc1ncc(F)c(Nc2cc3ccccc3nc2C(N)=O)n1 [Compound 493, 3-(2-{6-[4-(cyanomethyl)-1-piperazinyl]-4-methoxy-3-pyridylamino}-5-fluoro-4-pyrimidinylamino)-2-quinolinecarboxamide]	
≤ 500 nM	COc1cc(N2CCN(C3COC3)CC2)ncc1Nc1nccc(Nc2cnc3ccc(Cl)cc3c2)n1 [Compound 494, 4-(6-chloro-3-quinolylamino)-2-{4-methoxy-6-[4-(3-oxetanyl)-1-piperazinyl]-3-pyridylamino}pyrimidine]	
≤ 500 nM	COc1cc(N2CCN(C3COC3)CC2)ncc1Nc1ncc(F)c(Nc2cc3ccccc3nc2C(N)=O)n1 [Compound 495, 3-(5-fluoro-2-{4-methoxy-6-[4-(3-oxetanyl)-1-piperazinyl]-3-pyridylamino}-4-pyrimidinylamino)-2-quinolinecarboxamide]	
≤ 500 nM	O=S1(=O)CCN(CCCOc2ccc(Nc3nccc(Nc4cnc5c(c4)OCCO5)n3)cc2)CC1 [Compound 506, 4-(3-{p-[4-(2,3-dihydro-1,4-dioxa-5-aza-7-naphthylamino)-2-pyrimidinylamino]phenoxy}propyl)-1λ^6,4-thiazinane-1,1-dione]	
